Data reported in PubChem BioAssay AID1963963 (Molecular Pharmacology Branch, DTP, NCI, 2024).

Tested on: 958667-338-R-J2-PDC tumor spheroids viability
Assay: Anticancer human tumor 958667-338-R-J2-PDC patient-derived colon adenocarcinoma cell line growth inhibition [PI3K]
Settings: spheroids with HUVEC and MSC; for viability, T/C: stronger effect = lower value
Method in brief: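 Tumor cells were combined with HUVEC and MSCs into spheroids, then dosed with PI3K-inhibitor combinations over half-log ranges capped near clinical Cmax or 10 microM.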
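Note: spheroids exposed to compounds for seven days before readout.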

With `Cn1ncnc1[C@H]1c2n[nH]c(=O)c3cc(F)cc(c23)N[C@@H]1c1ccc(F)cc1` + CC(Nc1ncnc2nc[nH]c12)c1cc2cccc(Cl)c2c(=O)n1-c1ccccc1 the IC50 (curve of first compound, second compound 0.0316 µM) was > 100 nM, the IC50 (curve of first compound, second compound 0.1 µM) was > 100 nM and the IC50 (curve of first compound, second compound 0.316 µM) was > 100 nM. For the same molecule, the IC50 (curve of first compound, second compound 1 µM) was > 100 nM, the IC50 (curve of first compound, second compound 3.16 µM) was > 100 nM and the IC50 (curve of first compound, second compound 10 µM) was > 100 nM. For the same molecule, the viability, T/C (second compound 0.0316 µM, first compound 0.000316 µM) was 103%, the viability, T/C (second compound 0.0316 µM, first compound 0.001 µM) was 114% and the viability, T/C (second compound 0.0316 µM, first compound 0.00316 µM) was 105%. For the same molecule, the viability, T/C (second compound 0.0316 µM, first compound 0.01 µM) was 110%, the viability, T/C (second compound 0.0316 µM, first compound 0.0316 µM) was 113% and the viability, T/C (second compound 0.0316 µM, first compound 0.1 µM) was 98%. For the same molecule, the viability, T/C (second compound 0.1 µM, first compound 0.000316 µM) was 103%, the viability, T/C (second compound 0.1 µM, first compound 0.001 µM) was 82.8% and the viability, T/C (second compound 0.1 µM, first compound 0.00316 µM) was 117%. For the same molecule, the viability, T/C (second compound 0.1 µM, first compound 0.01 µM) was 126%, the viability, T/C (second compound 0.1 µM, first compound 0.0316 µM) was 119% and the viability, T/C (second compound 0.1 µM, first compound 0.1 µM) was 83.6%. The viability, T/C (second compound 0.316 µM, first compound 0.000316 µM) was 120%, the viability, T/C (second compound 0.316 µM, first compound 0.001 µM) was 114% and the viability, T/C (second compound 0.316 µM, first compound 0.00316 µM) was 111%. For the same molecule, the viability, T/C (second compound 0.316 µM, first compound 0.01 µM) was 116%, the viability, T/C (second compound 0.316 µM, first compound 0.0316 µM) was 118% and the viability, T/C (second compound 0.316 µM, first compound 0.1 µM) was 94.7%. The viability, T/C (second compound 1 µM, first compound 0.000316 µM) was 109%, the viability, T/C (second compound 1 µM, first compound 0.001 µM) was 112% and the viability, T/C (second compound 1 µM, first compound 0.00316 µM) was 99.9%. For the same molecule, the viability, T/C (second compound 1 µM, first compound 0.01 µM) was 100%, the viability, T/C (second compound 1 µM, first compound 0.0316 µM) was 95.2% and the viability, T/C (second compound 1 µM, first compound 0.1 µM) was 96.3%. It also gave a viability, T/C (second compound 3.16 µM, first compound 0.000316 µM) of 107%, a viability, T/C (second compound 3.16 µM, first compound 0.001 µM) of 109% and a viability, T/C (second compound 3.16 µM, first compound 0.00316 µM) of 99.2%. The viability, T/C (second compound 3.16 µM, first compound 0.01 µM) was 89.9%, the viability, T/C (second compound 3.16 µM, first compound 0.0316 µM) was 94.7% and the viability, T/C (second compound 3.16 µM, first compound 0.1 µM) was 89.8%. The viability, T/C (second compound 10 µM, first compound 0.000316 µM) was 93.7%, the viability, T/C (second compound 10 µM, first compound 0.001 µM) was 98.3% and the viability, T/C (second compound 10 µM, first compound 0.00316 µM) was 109%. It also gave a viability, T/C (second compound 10 µM, first compound 0.01 µM) of 89.9%, a viability, T/C (second compound 10 µM, first compound 0.0316 µM) of 83.2% and a viability, T/C (second compound 10 µM, first compound 0.1 µM) of 88.4%.
With `CC(Nc1ccc2c(c1)OCCn1cc(N3C(=O)OCC3C(F)F)nc1-2)C(N)=O` (stereo not drawn) the viability, T/C (compound 0.01 µM) was 100% [middle of 7 runs], the viability, T/C (compound 0.0316 µM) was 96.9% [middle of 7 runs] and the viability, T/C (compound 0.1 µM) was 80.8% [middle of 7 runs]. For the same molecule, the viability, T/C (compound 0.316 µM) was 70.7% [middle of 7 runs], the viability, T/C (compound 1 µM) was 64.9% [middle of 7 runs] and the IC50 (compound alone, run of 06/12/2023) was > 1000 nM.
